Here are results for 18 substances from the OligoGym collection.

HELM strings list units from the 5' end as sugar, base in round brackets, then linkage (d deoxyribose, r ribose, m 2'-O-methyl, p phosphodiester). Strings are as the collection lists them; they lack the last nucleoside at the 3' end of the tested compound. [moe] = 2'-O-(2-methoxyethyl) (MOE); [sp] = phosphorothioate linkage; [m5C] = 5-methylcytosine

This data set concerns the target UBE3A-ATS. The experiment in a line: mouse, dose not given. To be noted: ASO.
In the case of “RNA1{[moe](A)[sp].[moe](T)p.[moe](G)p.[moe](T)p.[moe](G)p.d([m5C])[sp].d(A)[sp].d(T)[sp].d(A)[sp].d([m5C])[sp].d([m5C])[sp].d([m5C])[sp].d(A)[sp].d(G)[sp].d(G)[sp].[moe](G)p.[moe](T)p.[moe](A)[sp].[moe](G)}$$$$ (last 3' nucleoside missing)”, the 3 h FOB score was found to be 4 score 0-7.
The value for “RNA1{[moe](G)[sp].[moe](G)p.[moe](T)p.[moe](A)p.[moe](G)p.d([m5C])[sp].d([m5C])[sp].d([m5C])[sp].d([m5C])[sp].d(A)[sp].d(A)[sp].d(T)[sp].d(A)[sp].d([m5C])[sp].d(A)[sp].[moe](G)p.[moe](A)p.[moe](T)[sp].[moe](T)}$$$$ (last 3' nucleoside missing)” was 1 score 0-7.
The figure for “RNA1{[moe]([m5C])[sp].[moe]([m5C])p.[moe](A)p.[moe](T)p.[moe](T)p.d(T)[sp].d(T)[sp].d(G)[sp].d(A)[sp].d([m5C])[sp].d([m5C])[sp].d(T)[sp].d(T)[sp].d([m5C])[sp].d(T)[sp].[moe](T)p.[moe](A)p.[moe](G)[sp].[moe]([m5C])}$$$$ (last 3' nucleoside missing)” is 1 score 0-7; for “RNA1{[moe]([m5C])[sp].[moe](T)p.[moe](G)p.[moe]([m5C])p.[moe](T)p.[moe](T)p.d([m5C])[sp].d(A)[sp].d([m5C])[sp].d([m5C])[sp].d(A)[sp].d(T)[sp].d(T)[sp].d(T)[sp].d(T)[sp].d(G)[sp].[moe](A)p.[moe]([m5C])[sp].[moe]([m5C])}$$$$ (last 3' nucleoside missing)” it is 0 score 0-7.
The value for “RNA1{[moe](T)[sp].[moe]([m5C])p.[moe](A)p.[moe](G)p.d(T)[sp].d(T)[sp].d(A)[sp].d(G)[sp].d(G)[sp].d(T)[sp].d(T)[sp].d(A)[sp].d(G)[sp].d(T)[sp].[moe](G)p.[moe]([m5C])p.[moe](A)p.[moe]([m5C])[sp].[moe](A)}$$$$ (last 3' nucleoside missing)” was 4 score 0-7.
Substance “RNA1{[moe](G)[sp].[moe](G)p.[moe](T)p.[moe]([m5C])p.[moe](A)p.[moe](T)p.d([m5C])[sp].d(T)[sp].d([m5C])[sp].d(G)[sp].d(G)[sp].d(G)[sp].d(T)[sp].d(A)[sp].d(T)[sp].d(A)[sp].[moe](T)p.[moe](A)[sp].[moe](A)}$$$$ (last 3' nucleoside missing)” came in with a 3 h FOB score of 6 score 0-7.
The figure for “RNA1{[moe](T)[sp].[moe](T)p.[moe](T)p.[moe](G)p.[moe](G)p.d(T)[sp].d(A)[sp].d(T)[sp].d(T)[sp].d(G)[sp].d(A)[sp].d([m5C])[sp].d(A)[sp].d([m5C])[sp].d([m5C])[sp].[moe](T)p.[moe]([m5C])p.[moe]([m5C])[sp].[moe](A)}$$$$ (last 3' nucleoside missing)” is 3.7 score 0-7; for “RNA1{[moe](T)[sp].[moe]([m5C])p.[moe](A)p.[moe]([m5C])p.d([m5C])[sp].d(A)[sp].d(T)[sp].d(T)[sp].d(T)[sp].d(T)[sp].d(G)[sp].d(A)[sp].d([m5C])[sp].d([m5C])[sp].[moe](T)p.[moe](T)p.[moe]([m5C])p.[moe](T)[sp].[moe](T)}$$$$ (last 3' nucleoside missing)” it is 2 score 0-7.
The value for “RNA1{[moe](A)[sp].[moe]([m5C])[sp].[moe](A)[sp].[moe](T)[sp].[moe](T)[sp].d(T)[sp].d([m5C])[sp].d(T)[sp].d(T)[sp].d(A)[sp].d(G)[sp].d(T)[sp].d(T)[sp].d(G)[sp].d(A)[sp].[moe](A)[sp].[moe]([m5C])[sp].[moe](A)[sp].[moe](G)}$$$$ (last 3' nucleoside missing)” was 6.5 score 0-7; that for “RNA1{[moe]([m5C])[sp].[moe](A)p.[moe](T)p.[moe](A)p.[moe](T)p.d(A)[sp].d([m5C])[sp].d(T)[sp].d(A)[sp].d(A)[sp].d(A)[sp].d(T)[sp].d(G)[sp].d(T)[sp].d(T)[sp].[moe](G)p.[moe]([m5C])p.[moe]([m5C])[sp].[moe](G)}$$$$ (last 3' nucleoside missing)” was 1 score 0-7; that for “RNA1{[moe]([m5C])[sp].[moe](A)[sp].[moe](A)[sp].[moe]([m5C])[sp].[moe](T)[sp].d(G)[sp].d(T)[sp].d(T)[sp].d(A)[sp].d([m5C])[sp].d([m5C])[sp].d(A)[sp].d(A)[sp].d(G)[sp].d(A)[sp].[moe]([m5C])[sp].[moe](T)[sp].[moe](T)[sp].[moe]([m5C])}$$$$ (last 3' nucleoside missing)” was 4.8 score 0-7.
Turning to “RNA1{[moe](T)[sp].[moe](T)p.[moe]([m5C])p.[moe]([m5C])p.[moe]([m5C])p.d(A)[sp].d(T)[sp].d(T)[sp].d([m5C])[sp].d(A)[sp].d(G)[sp].d([m5C])[sp].d(A)[sp].d([m5C])[sp].d(T)[sp].[moe](T)p.[moe](A)p.[moe](G)[sp].[moe](G)}$$$$ (last 3' nucleoside missing)”, the 3 h FOB score turned out to be 3.3 score 0-7.
The value for “RNA1{[moe](G)[sp].[moe]([m5C])p.[moe](T)p.[moe]([m5C])p.[moe](A)p.d(G)[sp].d(T)[sp].d(T)[sp].d(A)[sp].d(G)[sp].d(G)[sp].d(T)[sp].d(T)[sp].d(A)[sp].d(G)[sp].[moe](T)p.[moe](G)p.[moe]([m5C])[sp].[moe](A)}$$$$ (last 3' nucleoside missing)” was 3.8 score 0-7; that for “RNA1{[moe](A)[sp].[moe](G)p.[moe](T)p.[moe](T)p.[moe](T)p.d(T)[sp].d([m5C])[sp].d(G)[sp].d([m5C])[sp].d([m5C])[sp].d([m5C])[sp].d(G)[sp].d(T)[sp].d(T)[sp].d(A)[sp].[moe]([m5C])p.[moe]([m5C])p.[moe](T)[sp].[moe]([m5C])}$$$$ (last 3' nucleoside missing)” was 4 score 0-7; that for “RNA1{[moe](A)[sp].[moe]([m5C])p.[moe]([m5C])p.[moe](A)p.[moe](T)p.d(T)[sp].d(T)[sp].d(T)[sp].d(G)[sp].d(A)[sp].d([m5C])[sp].d([m5C])[sp].d(T)[sp].d(T)[sp].d([m5C])[sp].[moe](T)p.[moe](T)p.[moe](A)[sp].[moe](G)}$$$$ (last 3' nucleoside missing)” was 0 score 0-7.
Substance “RNA1{[moe](G)[sp].[moe](T)p.[moe](G)p.[moe]([m5C])p.[moe](A)p.[moe](T)p.d(A)[sp].d([m5C])[sp].d([m5C])[sp].d([m5C])[sp].d(A)[sp].d(G)[sp].d(G)[sp].d(G)[sp].d(T)[sp].d(A)[sp].[moe](G)p.[moe](G)[sp].[moe](A)}$$$$ (last 3' nucleoside missing)” showed a 3 h FOB score of 1 score 0-7.
The figure for “RNA1{[moe](T)[sp].[moe](T)p.[moe](T)p.[moe](G)p.[moe](T)p.d(A)[sp].d(G)[sp].d([m5C])[sp].d(T)[sp].d(A)[sp].d(T)[sp].d(A)[sp].d(G)[sp].d(G)[sp].d(T)[sp].[moe](G)p.[moe](T)p.[moe]([m5C])[sp].[moe](A)}$$$$ (last 3' nucleoside missing)” is 2.3 score 0-7; for “RNA1{[moe](T)[sp].[moe]([m5C])p.[moe]([m5C])p.[moe]([m5C])p.[moe](A)p.d(T)[sp].d([m5C])[sp].d(A)[sp].d(T)[sp].d([m5C])[sp].d(A)[sp].d(G)[sp].d(T)[sp].d(G)[sp].d(T)[sp].[moe](G)p.[moe](T)p.[moe](G)[sp].[moe]([m5C])}$$$$ (last 3' nucleoside missing)” it is 3.25 score 0-7.
